Measured values: patent US20080058703A1, “Drug electrotransport with hydration measurement of hydratable reservoir” (priority 2006, published 2008)

Experiment: In vitro skin flux of apomorphine by electrotransport from hydrated TECOGEL matrix (horizontal diffusion cell)
Assay type: in vitro ADME
Conditions: in vitro electrotransport from hydrated TECOGEL matrix across heat separated human epidermis
Excerpt: The diamond symbols show the average data points at particular time intervals and the vertical lines show the standard deviation. Measurement of impedance during hydration of TECOGEL® is reported in FIG. 8 and described in Example 3 below. The flux of apomorphine free base is plotted as a function of electrotransport time (in hrs). The unit for the flux is μg/cm^2 hr. […] It is noted that the TECOGEL® was used to illustrate that hydration can be done and the level of hydration measured. The exact type of polyurethane gel used is not critical as long a gel can be formed that can allow drug ions to migrate under an electrical potential.
The following methodology was used for the in vitro flux experiments for illustrative purposes:
Custom-built horizontal diffusion cells made in-house from DELRIN® polymeric material were used for the in vitro skin flux experiments and heat separated human epidermis was used. A consumable Ag electrode with the same polarity as the drug was adhered to one end of a DELRIN® material diffusion cell that functioned as the donor cell. […]
A Hanson Research MICROETTE™ collection system, interfaced to the experimental set up, collected the drug containing receptor solution from the reservoir underneath the skin directly into HPLC vials. […] The Hanson system collected samples to be analyzed by an HPLC to determine delivery efficiency of the drug in the formulation. […]

Structure (SMILES): CN1CCc2cccc3c2[C@H]1Cc1ccc(O)c(O)c1-3 [apomorphine]
- rise to steady state time: about 3 hours
- steady state flux of apomorphine free base (37° C., until about 24 hours): about 32 μg/cm^2 hr
